Results on one molecule are retold here after US20260108483A1, “METHODS AND COMPOSITIONS FOR PREVENTING THE PROGRESSION OF DIABETIC RETINOPATHY AND RELATED CONDITIONS” (Opus Genetics, Inc., priority 2023, published 2026).

Type in all cases: in vivo, human
A short description of series [1]: Clinical study safety: heart rate. The settings on record: combined placebo + Compound 1 patients; for Mean Heart Rate: Baseline 76.7. From the text:
(§1) The study was configured as a placebo-controlled, double-masked, randomized, Phase 2 study in approximately 100 subjects with moderately severe to severe NPDR (diabetic retinopathy severity score [DRSS] Level 47 or 53, see FIG. 1) or mild PDR (DRSS Level 61), evaluating safety and efficacy following administration of Compound 1 twice daily for 24 weeks. The study was configured for a 1:1 randomization (placebo: Compound 1). Randomization was stratified by level of disease severity (NPDR or PDR). Subjects with mild PDR were capped at 20% for each arm. Efficacy evaluations at 12 and/or 24 weeks included DRSS, center-involved diabetic macular edema (DME), moderate PDR or PDR-related adverse events (AEs), best-corrected visual acuity (BCVA), and central subfield thickness (CST). Further experimental procedures and results are described below.
(§2) At the Qualification/Baseline (Visit 2, Day 1): • The subject was randomized into the study. • Study medication was dispensed in accordance with the subjects randomized treatment arm. • Blood samples were drawn pre-dose for baseline levels and on Visit 9 (Week 24) for exploratory biomarker processing (i.e., cytokine and Ref-1 levels) to evaluate pharmacodynamic properties. • Subjects were instructed to administer their study medication (Compound 1 or placebo) each day, with 3 tablets every morning and 2 tablets every evening. Study medication was to be taken at approximately the same time each day and may be taken with or without food.
(§3) At the Second Treatment Visit (Visit 6, Week 12±2 Days), subjects were to return to the site for the following series of safety and efficacy assessments: drug accountability, concomitant medications, urine pregnancy test (only for women of childbearing potential), HR/BP/vital signs, BCVA (ETDRS), DRSS, CST (SD-OCT), blood draw for PK, blood chemistry, blood hematology, biomicroscopy, ophthalmoscopy, IOP, eGFR, and AEs. Following the completion of the assessments, used medication kits were collected for accountability (by counting the number of unused tablets), and new study medication kits dispensed.
(§4) At the Third Treatment Visit (Visit 9, Week 24±2 Days), subjects were to return to the site for the following series of safety and efficacy assessments: drug accountability, concomitant medications, urine pregnancy test (only for women of childbearing potential), physical examination, HR/BP/vital signs, BCVA (ETDRS), DRSS, CST (SD-OCT), blood chemistry, blood hematology, biomicroscopy, ophthalmoscopy, IOP, eGFR, AEs, and blood draw for exploratory biomarkers (ELISA, cytokine panel, comprehensive metabolic panel). Visit 9 (Week 24) was the end of the treatment period. Study medication was returned for accountability (by counting the number of unused tablets), and no further study medication dispensed.
(§5) Safety endpoints include: • Incidence and severity of systemic and ocular AEs, • Change from baseline in body system assessments, • Change from baseline in vital sign measurements, • Change from baseline in clinical laboratory assay results (blood chemistry, hematology), • Change from baseline in intraocular pressure (IOP), • Change from baseline in slit-lamp examination parameters, • Change from baseline in dilated funduscopic examination parameters, • Percent of subjects with a decrease of ≥10 letters in BCVA compared to baseline at Week 12 and Week 24, • Percent of subjects progressing to center-involved DME (eligible for rescue treatment at Week 12 and Week 24), • Percent of subjects with a worsening in DRSS of ≥2 steps in the study eye at Week 12 and Week 24, • Percent of subjects developing anterior segment neovascularization at Week 12 and Week 24, • Percent of subjects rescued (intravitreal anti-VEGF injection, laser PRP, focal/grid laser treatment, or surgery [vitrectomy]) at the discretion of the Investigator at Week 12 and Week 24, and • Change from baseline in estimated glomerular filtration rate (eGFR) at Week 12 and Week 24. […]

Series [2] in a line: Clinical study safety: glomerular filtration rate. The settings on record: combined placebo + Compound 1 patients; for Mean Glomerular Filtration Rate: Baseline 92.53.
Text: as §1, §2, §3, §4, §5

A short description of series [3]: Clinical study safety: aspartate aminotransferase in subjects' blood. The conditions noted are these: combined placebo + Compound 1 patients; for Mean Concentration of Aspartate Aminotransferase in Subjects' Blood: Baseline 19.7.
Text: as §1, §2, §3, §4, §5

The nature of series [4]: Clinical study safety: systolic blood pressure. The settings on record: combined placebo + Compound 1 patients; for Mean Systolic Blood Pressure: Baseline 136.9.
Text: as §1, §2, §3, §4, §5

With `CCCCCCCCC/C(=C\C1=C(C)C(=O)C(OC)=C(OC)C1=O)C(=O)O` [Compound 1, (E)-2-((4,5-dimethoxy-2-methyl-3,6-dioxocyclohexa-1,4-dien-1-yl)methylene)undecanoic acid], the “Mean Heart Rate” value in series [1] (Week 12, 62 subjects) is given as 76.3 beats/min; in series [1] (Week 24, 27 subjects) it was 80.7 beats/min. The “change in mean heart rate relative to Baseline” value is on record as “+0.9 beats/min” in series [1] (week 12, 62 subjects) and “+4.3 beats/min” in series [1] (week 24, 27 subjects). In addition, the “increase in mean heart rate relative to Baseline” value turned out to be 1% in series [1] (week 12, 62 subjects) and 6% in series [1] (week 24, 27 subjects). The “Mean Glomerular Filtration Rate” value is 83.85 mL/min/1.73 m^2 in series [2] (Week 12, 52 subjects) and 77.7 mL/min/1.73 m^2 in series [2] (Week 24, 24 subjects). The “change in mean glomerular filtrate rate relative to Baseline” value in series [2] (week 12, 47 subjects) is recorded as −2.24 mL/min/1.73 m^2; in series [2] (week 24, 21 subjects), −9.84 mL/min/1.73 m^2. In addition, the “reduction in mean glomerular filtrate rate relative to Baseline” value amounted to 2% in series [2] (week 12, 47 subjects) and 11% in series [2] (week 24, 21 subjects). Moreover, the “Mean Concentration of Aspartate Aminotransferase in Subjects' Blood” value in series [3] (Week 12, 53 subjects) is 19.2 IU/L; in series [3] (Week 24, 24 subjects), 17.5 IU/L. Moreover, the “change in mean concentration of aspartate aminotransferase relative to Baseline” value is −0.5 IU/L in series [3] (week 12, 50 subjects) and −1.8 IU/L in series [3] (week 24, 22 subjects). The “reduction in mean concentration of aspartate aminotransferase relative to Baseline” value in series [3] (week 12, 50 subjects) was 3%; in series [3] (week 24, 22 subjects), 9%. For the same molecule, the “Mean Systolic Blood Pressure” value was determined as 132 mmHg in series [4] (Week 12, 62 subjects) and 139.7 mmHg in series [4] (Week 24, 27 subjects). The “change in mean systolic blood pressure relative to Baseline” value in series [4] (week 12, 62 subjects) is given as −4.7 mmHg; in series [4] (week 24, 27 subjects) it was −0.7 mmHg. The “reduction in mean systolic blood pressure relative to Baseline” value is reported as 3% in series [4] (week 12, 62 subjects) and 1% in series [4] (week 24, 27 subjects).
